From patent US20230075765A1, “PYRROLO[2,3-D]PYRIMIDINE DERIVATIVE TARGETING EGFR MUTATION, AS WELL AS THE PREPARATIVE METHOD AND THE USE THEREOF” (WEST CHINA HOSPITAL, SICHUAN UNIVERSITY, priority 2020, published 2023)

What was measured:
Type in all cases: cell-based, human
[1] = test system: normal cells and different lung cancer cell lines; test: Inhibition of cell proliferation, CCK8 method, comparison in words over the whole cell panel; conditions: BEAS-2B, HBE, H460, A549, H1975, HCC827; CCK8, 48 h
Description: Compounds 1-9 of the present invention were respectively weighed and dissolved in 1 ml of dimethyl sulfoxide (DMSO), to prepare a 10 mM drug solution, which was stored in a refrigerator at −20° C. in the dark after packaging. The stock solution was diluted with the corresponding culture medium to the required concentration just before the experiment.
HBE cells and BEAS-2B cells are normal lung bronchial epithelial cell lines, and both cells were cultured in DMEM high glucose medium (supplemented with 10% fetal bovine serum and 1% double antibody) to the logarithmic growth phase; H460 cells, A549 cells, H1975 cells and HCC827 cells are lung cancer cell lines, and all of them were cultured in RPMI1640 medium (supplemented with 10% fetal bovine serum and 1% double antibody) to the logarithmic growth phase. Among them, H1975 cells and HCC827 cells are EGFR mutant cells.
When the cells were cultured to 90% of the growth density, the cells were digested with 0.25% trypsin to prepare a single cell suspension. The cells were counted, and then seeded in a 96-well plate at a density of 5000 cells/well, 100 μl for each well. The culture plate was moved into a CO2 incubator and incubated for 24 h at 37° C. and 5% CO2. Compounds at different concentrations were added to each well, 5 replicate wells for each concentration, and the cells were treated with the compounds for 48 hours. CCK8 detection reagent was added to each well according to the operation manual, and then the plate was further incubated for 1 h before terminating the culture. 450 nm wavelength was chosen, and the absorbance value of each well was adjusted on the microplate ELISA analyzer. The result was recorded. […] was taken as the horizontal axis, and absorbance as the vertical axis to plot a curve. The half inhibitory concentration (IC50) was calculated by Bliss method. Each experiment was repeated at least 3 times.
Normal lung cell lines and different lung cancer cell lines were selected for experiments. Amongst, the compound with high anti-cancer activity was screened, whose anti-tumor activity was further studied.

[2] = test system: Akt; test: Western blot, inhibition of Akt phosphorylation
Description: (§1) (1) Various cell lines in the logarithmic growth phase were evenly inoculated in a 6-well plate at a concentration of 3×10^6 cells/well, respectively, and cultured for 24 h;
(§2) (2) The culture supernatant was removed, and then the cells were washed twice with PBS, and treated with serum-free medium for 1 hour;
(§3) (3) The culture supernatant was removed, and each compound at different concentrations was added, then the cells were treated for 2 h;
(§4) (4) The supernatant was removed, and the cells were washed twice with pre-cooled PBS, then the supernatant was discarded;
(§5) (5) 100 μl of cell lysate was added to each well, and cells were lysed on ice for 10 min. The cells were scraped with a cell scraper. The cell lysate was transferred to a pre-cooled 1.5 ml EP tube, sonicated, and centrifuged under 12000 rpm at 4° C. for 10 min. The supernatant was carefully aspirated and stored at −20° C.
(§6) (6) To the aliquoted total cell protein, was added 5 μl of 5× loading buffer, and the protein was denatured in a water bath at 100° C. for 10 min, then the sample was centrifugated and loaded;
(§7) (1) The successfully transferred membrane was placed in the 1× blocking solution prepared, and kept in the blocking solution at room temperature for about 1 h;
(§8) (2) EGFR protein and its downstream proteins were diluted with 1× primary antibody diluent, and incubated overnight at 4° C., using […] antibody as an internal reference;
(§9) (3) The membrane was washed 3 times with 1×TBST, 5 min for each time, and then washed with 1× secondary antibody dilution, followed by incubation for 1 h at room temperature. Finally, the membrane was washed 3 times with 1×TBST, 15 min for each time.
(§10) (2) The mixed ECL reagent was added to PVDF membrane (1 ml/10 cm^2), and subjected to chemiluminescence to obtain a band;
(§11) Western Blot method was used to analyze the influence of each compound on the expression of pathway proteins.

[3] = test system: HCC827 cells; test: Cell cycle, PI staining, flow cytometry; conditions: for G2/M phase (%): 18 h (control 24.99); for S phase (%): 18 h (control 33.66); for G0/G1 phase (%): 18 h (control 41.35)
Description: (§12) A variety of different cells in the logarithmic growth phase were inoculated evenly in a 6-well plate at a concentration of 1×10^6 cells/well, 2 ml for each well, and then incubated overnight. Then, different compounds were added, and each compound was set different concentrations. After 18 h, the cells were collected, resuspended in PBS, and centrifuged to remove the supernatant, to which was then added 0.5 ml of pre-cooled 75% absolute ethanol dropwise, followed by vortexing to mix the cells and standing overnight at 4° C. The solution was centrifuged at 1000 rpm/min for 4 min, and the supernatant was discarded. Propidium iodide staining solution was prepared by using 5.6 ml staining buffer, 210 μl propidium iodide staining solution (25×), and 56 μl RNaseA (2.5 mg/ml). 0.4 ml of propidium iodide staining solution was added to each tube to resuspend the cells, and then incubated for 30 min at room temperature in the dark. The cell suspension was gently pipetted to mix, filtered into a flow tube, and stored in the dark at 4° C. The cells were detected on the flow cytometer within 1 h.

[4] = test system: H1975 cells; test: Cell cycle, PI staining, flow cytometry; conditions: for G2/M phase (%): 18 h (control 14.52); for S phase (%): 18 h (control 30.25); for G0/G1 phase (%): 18 h (control 55.23)
Description: as §12

[5] = test system: EGFR-Tyr992; test: Western blot, inhibition of EGFR phosphorylation; conditions: H1975 cells
Description: as §1, §2, §3, §4, §5, §6
(1) The successfully transferred membrane was placed in the 1× blocking solution prepared, and kept in the blocking solution at room temperature for about 1 h; […]

[6] = test system: ERK1/2; test: Western blot, inhibition of ERK1/2 phosphorylation
Description: as §1, §2, §3, §4, §5, §6, §7, §8, §9, §10, §11

[7] = test system: HCC827 cells; test: Apoptosis, Annexin V-FITC/PI double staining, flow cytometry; conditions: for Total apoptosis rate (%): 18 h (control 10.8)
Description: (§13) Apoptosis was detected by Annexin V-FITC/PI double staining method. A variety of different cells in the logarithmic growth phase were inoculated evenly in a 6-well plate at a concentration of 1×10^6 cells/well, 2 ml for each well, and then incubated overnight. Then, different compounds were added, and each compound was set different concentrations. After 18 h, the cells were collected with 0.25% trypsin without EDTA and washed twice with PBS solution. Then, the cells were stained by the apoptosis detection kit according to the instructions, and analyzed by flow cytometry.
(§14) In the experiment, human lung cancer cells HCC827 cells and H1975 cells were selected as the detection system. The control group was a blank control (DMSO). The test concentrations of the compounds were 0.5 μM and 5 μM. After treatment with the compounds for 18 h, the flow cytometry was used for detection. In the apoptosis result graph, the cells in quadrant E1 are necrotic cells, the cells in quadrant E2 are late apoptotic cells, the cells in quadrant E3 area represent live cells, and the cells in quadrant E4 are early apoptotic cells.

[8] = test system: H1975 cells; test: as above; conditions: for Total apoptosis rate (%): 18 h (control 9.2)
Description: as §13, §14

Compound	inhibitory effect on different cell lines (in words) [1]	inhibition of phosphorylation of Akt ([2]; H1975 cells)	inhibition of phosphorylation of Akt ([2]; wild-type EGFR cells)	ratio of cells in the G0/G1 phase compared with the control group (in words) [3]	G2/M phase (%) ([3]; 0.5 μM)	S phase (%) ([3]; 0.5 μM)	G0/G1 phase (%) ([3]; 0.5 μM)	G2/M phase (%) ([3]; 5 μM)	S phase (%) ([3]; 5 μM)	G0/G1 phase (%) ([3]; 5 μM)	ratio of cells in the G0/G1 phase compared with the control group (in words) [4]	G2/M phase (%) ([4]; 0.5 μM)	S phase (%) ([4]; 0.5 μM)	G0/G1 phase (%) ([4]; 0.5 μM)	G2/M phase (%) ([4]; 5 μM)	S phase (%) ([4]; 5 μM)	G0/G1 phase (%) ([4]; 5 μM)	inhibition of phosphorylation of EGFR-Tyr992 [5]	inhibition of phosphorylation of ERK1/2 ([6]; H1975 cells)	inhibition of phosphorylation of ERK1/2 ([6]; wild-type EGFR cells)	also measured
C=CC(=O)Nc1cccc(Oc2nc(Nc3ccc(N4CCN(C)CC4)c(N)c3)nc3c2ccn3COC(=O)C(C)(C)C)c1 [Compound 8]	relatively poor inhibitory effects on other cell lines	–	–	–	–	–	–	–	–	–	–	–	–	–	–	–	–	–	–	–	–
C=CC(=O)Nc1cccc(Oc2nc(Nc3ccc(N4CCN(C)CC4)c([N+](=O)[O-])c3)nc3[nH]ccc23)c1 [Compound 5]	–	inhibited	much weaker inhibitory effects	significantly higher	9.72%	16.99%	73.29%	14.12%	4.36%	81.52%	significantly higher	9.17%	4.64%	86.20%	11.64%	14.04%	74.33%	effectively inhibited	inhibited	much weaker inhibitory effects	apoptosis-inducing effect (in words) [7]: certain apoptosis-inducing effects; Total apoptosis rate (%) ([7]; 0.5 μM): 30.3%; Total apoptosis rate (%) ([7]; 5 μM): 23.8%; apoptosis-inducing effect (in words) [8]: certain apoptosis-inducing effects; Total apoptosis rate (%) ([8]; 0.5 μM): 12.7%; Total apoptosis rate (%) ([8]; 5 μM): 13.5%
C=CC(=O)Nc1cccc(Oc2nc(Nc3ccc(N4CCN(C)CC4)c(Cl)c3)nc3[nH]ccc23)c1 [Compound 2]	basically the same as that of the positive control	–	–	–	–	–	–	–	–	–	–	–	–	–	–	–	–	–	–	–	–
C=CC(=O)Nc1cccc(Oc2nc(Nc3ccc(N4CCN(C)CC4)c(I)c3)nc3c2ccn3COC(=O)C(C)(C)C)c1 [Compound 9]	poorer than that of other compounds	–	–	–	–	–	–	–	–	–	–	–	–	–	–	–	–	–	–	–	–
C=CC(=O)Nc1cccc(Oc2nc(Nc3ccc(N4CCN(C)CC4)c(N)c3)nc3[nH]ccc23)c1 [Compound 6]	–	inhibited	much weaker inhibitory effects	significantly higher	10.27%	11.62%	78.11%	7.95%	13.93%	78.12%	significantly higher	10.49%	5.28%	84.24%	13.18%	10.59%	76.23%	effectively inhibited	inhibited	much weaker inhibitory effects	apoptosis-inducing effect (in words) [7]: certain apoptosis-inducing effects; Total apoptosis rate (%) ([7]; 0.5 μM): 28.7%; Total apoptosis rate (%) ([7]; 5 μM): 23.6%; apoptosis-inducing effect (in words) [8]: certain apoptosis-inducing effects; Total apoptosis rate (%) ([8]; 0.5 μM): 16.4%; Total apoptosis rate (%) ([8]; 5 μM): 16.1%
